Measured values reported in article PMC12712055, “3D-MINFLUX nanoscopy reveals distinct allosteric mechanisms for activation and modulation of PIEZO1 by Yoda1” (Nature Communications, 2025).

How the values were obtained:
Experiment in all cases: calcium imaging (genetically encoded Ca2+ indicator), peak F/F0
Type in all cases: cell-based
[1] = biological target: T1, mouse PIEZO1 (PIEZO1-mScarlet / PIEZO1-ALFA-mGL) (Mus musculus, UniProt E2JF22)
T1 construct: full-length; C-terminal mScarlet (SG linker), or ALFA tag inserted after H86 plus C-terminal mGreenLantern (SG linker); transiently expressed in N2a-P1KO (mouse Neuro-2a PIEZO1-knockout) cells; homotrimer

[2] = biological target: T2, mouse PIEZO1 (PIEZO1-mScarlet / PIEZO1-ALFA-mGL) (Mus musculus, UniProt E2JF22, F1715A/V1714A)
T2 construct: full-length; C-terminal mScarlet (SG linker), or ALFA tag inserted after H86 plus C-terminal mGreenLantern (SG linker); transiently expressed in N2a-P1KO (mouse Neuro-2a PIEZO1-knockout) cells; homotrimer

[3] = biological target: T3, mouse PIEZO1 (PIEZO1-mScarlet / PIEZO1-ALFA-mGL) (Mus musculus, UniProt E2JF22, A2094W)
T3 construct: full-length; C-terminal mScarlet (SG linker), or ALFA tag inserted after H86 plus C-terminal mGreenLantern (SG linker); transiently expressed in N2a-P1KO (mouse Neuro-2a PIEZO1-knockout) cells; homotrimer
T3 sequence (E2JF22 whole entry A2094W): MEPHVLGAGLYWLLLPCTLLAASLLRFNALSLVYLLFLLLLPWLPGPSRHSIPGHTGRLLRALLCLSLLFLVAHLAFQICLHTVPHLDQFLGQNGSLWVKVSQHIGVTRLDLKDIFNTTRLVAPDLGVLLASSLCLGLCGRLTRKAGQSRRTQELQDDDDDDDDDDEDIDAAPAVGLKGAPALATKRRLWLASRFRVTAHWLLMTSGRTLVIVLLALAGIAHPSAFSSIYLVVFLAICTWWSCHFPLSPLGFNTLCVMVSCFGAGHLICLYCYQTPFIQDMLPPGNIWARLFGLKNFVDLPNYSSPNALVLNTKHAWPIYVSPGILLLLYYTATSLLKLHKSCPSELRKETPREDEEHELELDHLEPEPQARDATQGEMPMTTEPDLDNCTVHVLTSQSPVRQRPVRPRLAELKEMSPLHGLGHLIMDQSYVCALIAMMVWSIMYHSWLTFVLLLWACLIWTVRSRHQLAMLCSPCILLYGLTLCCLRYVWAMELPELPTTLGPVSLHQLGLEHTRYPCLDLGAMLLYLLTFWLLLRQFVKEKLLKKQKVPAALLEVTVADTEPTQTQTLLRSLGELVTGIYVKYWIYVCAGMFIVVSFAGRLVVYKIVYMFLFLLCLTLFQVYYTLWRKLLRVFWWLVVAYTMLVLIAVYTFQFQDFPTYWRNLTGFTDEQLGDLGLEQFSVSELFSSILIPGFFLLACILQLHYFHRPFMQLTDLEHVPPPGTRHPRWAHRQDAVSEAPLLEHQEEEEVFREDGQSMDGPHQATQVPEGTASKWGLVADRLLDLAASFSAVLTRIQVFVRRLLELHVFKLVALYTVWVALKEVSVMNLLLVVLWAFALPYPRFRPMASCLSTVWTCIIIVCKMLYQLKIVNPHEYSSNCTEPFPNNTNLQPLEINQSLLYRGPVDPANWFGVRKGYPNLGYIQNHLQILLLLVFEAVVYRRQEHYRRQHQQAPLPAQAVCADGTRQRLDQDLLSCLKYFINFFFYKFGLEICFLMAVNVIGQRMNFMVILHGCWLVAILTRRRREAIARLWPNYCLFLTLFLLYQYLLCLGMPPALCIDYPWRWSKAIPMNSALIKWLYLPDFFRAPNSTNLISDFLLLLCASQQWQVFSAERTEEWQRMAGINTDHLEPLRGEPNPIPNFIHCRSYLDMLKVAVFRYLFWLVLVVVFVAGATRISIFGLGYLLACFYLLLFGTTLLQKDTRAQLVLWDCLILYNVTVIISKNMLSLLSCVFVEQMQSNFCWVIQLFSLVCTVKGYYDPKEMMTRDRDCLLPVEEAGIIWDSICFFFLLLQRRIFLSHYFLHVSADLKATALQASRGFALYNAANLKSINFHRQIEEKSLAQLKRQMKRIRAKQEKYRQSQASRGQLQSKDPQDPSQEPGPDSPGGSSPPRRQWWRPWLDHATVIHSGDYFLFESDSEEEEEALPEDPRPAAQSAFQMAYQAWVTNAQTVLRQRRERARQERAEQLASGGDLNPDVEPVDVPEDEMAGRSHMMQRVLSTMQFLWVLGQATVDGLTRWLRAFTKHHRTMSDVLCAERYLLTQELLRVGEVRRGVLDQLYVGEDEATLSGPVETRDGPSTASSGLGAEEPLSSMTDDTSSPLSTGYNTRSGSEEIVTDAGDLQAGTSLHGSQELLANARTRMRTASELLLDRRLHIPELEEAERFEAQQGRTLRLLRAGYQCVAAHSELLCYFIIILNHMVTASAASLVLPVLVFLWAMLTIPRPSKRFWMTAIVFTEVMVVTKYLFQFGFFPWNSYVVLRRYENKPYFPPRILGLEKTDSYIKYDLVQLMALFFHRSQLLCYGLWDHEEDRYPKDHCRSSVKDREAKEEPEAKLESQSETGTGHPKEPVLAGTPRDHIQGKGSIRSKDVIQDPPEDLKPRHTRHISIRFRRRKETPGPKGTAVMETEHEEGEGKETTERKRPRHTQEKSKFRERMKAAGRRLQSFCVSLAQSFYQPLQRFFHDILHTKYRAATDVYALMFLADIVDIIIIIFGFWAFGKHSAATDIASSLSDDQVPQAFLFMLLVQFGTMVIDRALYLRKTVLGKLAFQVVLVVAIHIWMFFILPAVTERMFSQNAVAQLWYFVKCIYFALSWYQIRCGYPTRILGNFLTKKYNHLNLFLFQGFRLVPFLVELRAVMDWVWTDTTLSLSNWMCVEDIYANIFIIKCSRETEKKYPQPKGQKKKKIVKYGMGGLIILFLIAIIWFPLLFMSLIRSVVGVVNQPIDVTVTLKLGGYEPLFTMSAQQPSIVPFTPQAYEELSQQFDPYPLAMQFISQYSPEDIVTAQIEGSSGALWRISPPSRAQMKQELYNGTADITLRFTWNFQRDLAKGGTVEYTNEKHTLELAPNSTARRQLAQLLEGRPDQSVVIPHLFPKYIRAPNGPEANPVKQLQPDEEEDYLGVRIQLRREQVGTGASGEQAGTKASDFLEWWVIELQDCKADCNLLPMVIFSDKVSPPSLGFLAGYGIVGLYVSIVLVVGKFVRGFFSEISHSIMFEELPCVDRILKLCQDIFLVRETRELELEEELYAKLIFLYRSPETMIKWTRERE

T1 sequence (E2JF22 whole entry): as the sequence (E2JF22 whole entry A2094W) above, with W2094A counted along it
T2 sequence (E2JF22 whole entry V1714A/F1715A): as the sequence (E2JF22 whole entry A2094W) above, with V1714A, F1715A, W2094A counted along it

EC50 [1]: 30 nM
EC50 [2]: 67 nM
EC50 [3]: 7.03 µM
Structure (SMILES): O=C(O)c1ccc(-c2nnc(SCc3c(Cl)cccc3Cl)s2)cc1 [Yoda2]
